These results are taken from US20120329815A1, “Famciclovir for the Treatment of Recurrent Herpes Labialis using a One-Day Treatment” (priority 2005, published 2012).

The subject of data set [1] is recurrent herpes labialis. Briefly: Study 2403: randomized, double-blind, placebo-controlled trial of patient-initiated one-day therapy, efficacy. The conditions noted are these: for Hazard ratio vs placebo, time to healing of all (non-aborted and aborted) lesions / Proportion of patients with aborted lesions / Time to healing of all (non-aborted and aborted) lesions (median): ITT; for Time to healing of all (non-aborted and aborted) lesions (median): aborted lesions assigned time zero. Format: in vivo, human. The text has this: This study design is a parallel-group, double-blind, double-dummy, randomized placebo-controlled trial of patient initiated therapy in adult immunocompetent patients with recurrent herpes labialis.
Adult immunocompetent patients with a history of recurrent herpes labialis and at least three episodes in the previous 12 months are selected. These patients have a history of prodromal symptoms preceding at least 50% of their herpes labialis episodes and a history of vesicular lesions occurring in at least 50% of those episodes.
After screening, a total of 900 eligible patients are randomly assigned to one of three treatment groups and are dispensed study medication. The overall assignment ratio is 1:1:1. Patients are instructed to initiate treatment within one hour of the first prodromal symptom without any clinical signs of a recurrent episode of herpes labialis.
Group 1, famciclovir 1500 mg daily (1500 mg po followed by placebo 12 hours later)
Group 2, famciclovir 1500 mg daily (750 mg po b.i.d.) or
Group 3, matching placebo capsules (po b.i.d.).
The criteria for evaluation include the primary efficacy variable and secondary efficacy variables. The primary efficacy variable is the investigator-assessed time to healing (re-epithelialization) of the non-aborted primary lesion complex, defined as the time from start of treatment until loss of crust (erythema may have been present). Secondary efficacy variables include time to healing of all non-aborted lesions (primary lesion complex and secondary lesions), time to healing of all lesions (non-aborted and aborted; latter assigned a time to healing of zero), and proportion of patients with aborted lesions.
Lesion healing for vesicular lesions is defined as loss of crust, although erythema may still be present. At each visit starting with Visit 2, the investigator makes assessments based on both the investigator examination of the current visit and patient diary entries since the previous visit. If healing is confirmed, the time of healing is defined as the earliest time it was reported and continuously maintained in the diary. This convention applies to the assessment of both the primary lesion complex and all vesicular lesions.
The Kaplan-Meier method is used to estimate the distribution of time to healing for each treatment group and the median time to healing. Estimated survival curves are plotted. The 95% confidence intervals for the median times to healing are constructed based on the first-order Taylor series approximation of their standard errors using the standard errors of the estimated survival functions. The 95% confidence intervals for between-treatment median differences are constructed using standard errors.
The overall distribution of the time to healing will be compared among treatment groups using the proportional hazards model, with treatment and center as the explanatory, variables. The Efron approximate likelihood method will be used for resolution of ties. Confidence intervals for the hazard ratios will be provided.
Variable 1, the primary efficacy variable, is the investigator-assessed time to healing of the primary lesion complex, defined as the time from start of treatment until loss of crust (for vesicular (classical) lesions progressing through the vesicle/ulcer stage only, erythema is allowed).
The primary efficacy variable, investigator-assessed time to healing of the primary lesion complex, is analyzed over the modified ITT population in two approaches: the primary estimation is based on the Kaplan-Meier method, and statistical testing is based on the proportional hazards model.
Secondary efficacy variables include variables 2-7. Variable 2 is the time to healing (lost of crust) of the primary lesion complex (non-vesicular lesions will be assigned a time of zero). Variable 3 is the time to healing (loss of crust) of all vesicular lesions (non-vesicular lesions will be assigned a time of zero). […]

Data set [2] can be described thus: Study 2403: safety and tolerability evaluation. It counts as in vivo, human. The settings on record: high-dose one-day treatment (750 mg b.i.d. or 1,500 mg q.d.), immunocompetent patients. From the text:
The assessment of safety is based mainly on the frequency of adverse events. Adverse events are summarized by presenting, for each treatment group, the number and percentage of patients having any adverse event, having an adverse event in each body system and having each individual adverse event. Any other information collected (e.g., severity or relatedness to study medication) will be listed as appropriate.
The safety and ITT populations include all randomized patients who are exposed to (take any) study medication. Using the above definitions, the safety and ITT populations comprise the same patients. For compatibility with the standard presentations, all safety summaries are referenced using the Safety population while appropriate efficacy summaries (for secondary parameters involving both vesicular and non-vesicular lesions) are referenced using the ITT population.

Data set [3] deals with recurrent herpes labialis. The settings on record: 500 mg three times a day for five days; immunocompetent adult patients; cited from earlier work.
The next data set concerns herpes labialis. The conditions noted are these: 2,000 mg twice a day for one day; immunocompetent adult patients; cited from earlier work.
Data set [4] relates to orolabial herpes infection. The settings on record: 200 mg or 400 mg five times a day for five days; cited from earlier work.
The mark [5] stands for this setting: 750 mg b.i.d. for one day, Modified ITT.
The mark [6] stands for this setting: 750 mg b.i.d. for one day, Per Protocol.
The mark [7] stands for this setting: 1500 mg q.d. single dose, Modified ITT.
[8] abbreviates: 1500 mg q.d. single dose, Per Protocol.

Turning to `CC(=O)OCC(CCn1cnc2cnc(N)nc21)COC(C)=O` [Famciclovir, 9-(4-acetoxy-3-acetoxymethylbut-1-yl)-2-aminopurine], in data set [1] (750 mg b.i.d. for one day), the “Hazard ratio vs placebo, time to healing of all (non-aborted and aborted) lesions” value is reported as 1.39; the “Proportion of patients with aborted lesions” value amounted to 29%; the “Time to healing of all (non-aborted and aborted) lesions (median)” value worked out at 3.0 days. Further, in data set [1] (setting [5]), the “Hazard ratio vs placebo, time to healing of all non-aborted (primary and secondary) lesions” value came out at 2.06; the “Hazard ratio vs placebo, time to healing of primary lesion complex” value (shortened to “Hazard ratio … of primary lesion complex”) came out at 2.05; the “Time to healing of all non-aborted (primary and secondary) lesions (median)” value was determined as 4.1 days; the “Time to healing of primary lesion complex (median)” value is recorded as 4.0 days. In data set [1] (setting [6]), the “Hazard ratio … of primary lesion complex” value was 2.06 and the “Time to healing of primary lesion complex (median)” value is given as 4.0 days. In addition, in data set [1] (1500 mg q.d. single dose), the “Hazard ratio vs placebo, time to healing of all (non-aborted and aborted) lesions” value came to 1.34; the “Proportion of patients with aborted lesions” value was 33%; the “Time to healing of all (non-aborted and aborted) lesions (median)” value is given as 2.9 days. In data set [1] (setting [7]), the “Hazard ratio vs placebo, time to healing of all non-aborted (primary and secondary) lesions” value came to 1.71; the “Hazard ratio … of primary lesion complex” value was 1.64; the “Time to healing of all non-aborted (primary and secondary) lesions (median)” value was found to be 4.5 days; the “Time to healing of primary lesion complex (median)” value is reported as 4.4 days. Besides, in data set [1] (setting [8]), the “Hazard ratio … of primary lesion complex” value worked out at 1.71 and the “Time to healing of primary lesion complex (median)” value worked out at 4.4 days. The Safety and tolerability entry in data set [2] was “safe, well-tolerated”. The Safety and tolerability result in data set [2] (listed as FCV) was “well tolerated and as safe as placebo”. In data set [3], the “Size of lesions as compared to placebo” value is on record as “reduction of the size of lesions” and the “Time to healing as compared to placebo” value is “shorter time to healing”.
Consider `CC(C)[C@H](N)C(=O)OCCOCn1cnc2c(=O)[nH]c(N)nc21` [Valacyclovir], for which the “Median time to healing of lesions as compared to placebo” value in the data set with herpes labialis is “reduced by approximately one day”.
Turning to `Nc1nc2c(ncn2COCCO)c(=O)[nH]1` [acyclovir], the “Time to healing of vesicular lesions and pain” value in data set [4] is “significant but limited reduction”.
